How the values were obtained:
[1] = molecular target: T1, ATP-dependent RNA helicase DHX33 (Mus musculus, UniProt Q80VY9); assay: Inhibition of N-terminal/C-terminal 6x His-tagged wild type recombinant mouse DHX33 transformed in Escherichia coli BL21(DE3)pLysS cells
T1 sequence (Q80VY9 whole entry): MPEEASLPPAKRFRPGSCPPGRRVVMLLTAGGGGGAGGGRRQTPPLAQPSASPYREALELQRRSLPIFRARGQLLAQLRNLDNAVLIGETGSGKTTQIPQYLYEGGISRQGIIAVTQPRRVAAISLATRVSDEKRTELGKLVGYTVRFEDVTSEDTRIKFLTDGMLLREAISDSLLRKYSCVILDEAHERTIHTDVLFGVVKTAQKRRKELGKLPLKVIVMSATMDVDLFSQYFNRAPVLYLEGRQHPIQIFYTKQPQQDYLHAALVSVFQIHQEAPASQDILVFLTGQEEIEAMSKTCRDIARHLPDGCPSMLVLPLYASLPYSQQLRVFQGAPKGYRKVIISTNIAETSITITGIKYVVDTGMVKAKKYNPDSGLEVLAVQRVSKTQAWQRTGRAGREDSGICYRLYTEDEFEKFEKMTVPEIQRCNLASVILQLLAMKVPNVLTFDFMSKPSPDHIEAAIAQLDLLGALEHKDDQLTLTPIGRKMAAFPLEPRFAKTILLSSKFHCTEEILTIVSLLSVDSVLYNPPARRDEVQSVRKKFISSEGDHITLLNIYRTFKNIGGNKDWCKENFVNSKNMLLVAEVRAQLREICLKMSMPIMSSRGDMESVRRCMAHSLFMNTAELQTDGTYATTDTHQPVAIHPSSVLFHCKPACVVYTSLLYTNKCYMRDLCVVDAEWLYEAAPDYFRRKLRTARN

[2] = molecular target: T2, Probable ATP-dependent RNA helicase DDX59 (Homo sapiens, UniProt Q5T1V6); assay: Inhibition of C-terminal 6xHis-tagged human recombinant DDX59 transformed in Escherichia coli BL21(DE3)pLysS cells
T2 sequence (Q5T1V6 whole entry): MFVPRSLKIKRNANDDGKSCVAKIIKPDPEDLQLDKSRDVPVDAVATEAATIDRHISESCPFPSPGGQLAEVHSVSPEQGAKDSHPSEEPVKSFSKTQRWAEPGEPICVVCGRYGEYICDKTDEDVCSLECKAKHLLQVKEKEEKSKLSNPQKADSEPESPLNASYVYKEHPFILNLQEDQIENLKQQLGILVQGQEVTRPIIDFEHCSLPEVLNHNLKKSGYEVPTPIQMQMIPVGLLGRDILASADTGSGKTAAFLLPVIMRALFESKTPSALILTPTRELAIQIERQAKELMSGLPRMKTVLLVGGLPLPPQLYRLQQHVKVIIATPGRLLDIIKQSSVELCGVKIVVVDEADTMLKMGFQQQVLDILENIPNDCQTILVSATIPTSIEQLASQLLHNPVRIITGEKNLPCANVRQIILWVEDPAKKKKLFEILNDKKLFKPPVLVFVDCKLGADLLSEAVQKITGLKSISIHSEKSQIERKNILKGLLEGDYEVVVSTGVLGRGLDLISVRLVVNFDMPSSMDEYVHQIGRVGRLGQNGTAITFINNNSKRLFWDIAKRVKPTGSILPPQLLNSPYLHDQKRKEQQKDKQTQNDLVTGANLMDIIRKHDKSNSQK

[3] = molecular target: T3, Putative pre-mRNA-splicing factor ATP-dependent RNA helicase DHX32 (Homo sapiens, UniProt Q7L7V1); assay: Inhibition of N-terminal thioredoxin-tagged human recombinant DHX32 transformed in Escherichia coli BL21(DE3)pLysS cells
T3 sequence (Q7L7V1 whole entry): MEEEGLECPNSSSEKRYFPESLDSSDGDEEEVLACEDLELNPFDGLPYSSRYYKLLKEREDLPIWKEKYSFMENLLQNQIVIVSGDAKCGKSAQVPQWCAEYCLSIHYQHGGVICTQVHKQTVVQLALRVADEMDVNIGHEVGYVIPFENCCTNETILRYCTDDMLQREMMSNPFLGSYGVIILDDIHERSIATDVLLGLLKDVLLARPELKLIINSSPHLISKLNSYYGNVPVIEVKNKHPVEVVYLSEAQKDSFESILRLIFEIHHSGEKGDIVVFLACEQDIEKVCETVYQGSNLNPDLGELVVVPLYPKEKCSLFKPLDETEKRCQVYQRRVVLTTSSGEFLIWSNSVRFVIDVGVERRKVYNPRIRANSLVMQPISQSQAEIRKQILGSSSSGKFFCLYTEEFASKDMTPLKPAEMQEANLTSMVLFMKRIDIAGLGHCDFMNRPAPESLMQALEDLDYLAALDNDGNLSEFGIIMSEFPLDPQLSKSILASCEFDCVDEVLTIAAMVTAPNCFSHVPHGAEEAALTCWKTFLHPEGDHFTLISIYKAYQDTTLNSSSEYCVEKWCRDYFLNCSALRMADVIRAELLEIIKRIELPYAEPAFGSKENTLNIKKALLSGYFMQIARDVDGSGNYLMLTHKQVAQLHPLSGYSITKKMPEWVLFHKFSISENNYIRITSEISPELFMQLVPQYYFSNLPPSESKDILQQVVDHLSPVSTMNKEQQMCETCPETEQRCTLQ

[4] = molecular target: T4, Probable ATP-dependent RNA helicase DDX6 (Homo sapiens, UniProt P26196); assay: Inhibition of N-terminal thioredoxin-tagged human recombinant DDX6 transformed in Escherichia coli BL21(DE3)pLysS cells
T4 sequence (P26196 whole entry): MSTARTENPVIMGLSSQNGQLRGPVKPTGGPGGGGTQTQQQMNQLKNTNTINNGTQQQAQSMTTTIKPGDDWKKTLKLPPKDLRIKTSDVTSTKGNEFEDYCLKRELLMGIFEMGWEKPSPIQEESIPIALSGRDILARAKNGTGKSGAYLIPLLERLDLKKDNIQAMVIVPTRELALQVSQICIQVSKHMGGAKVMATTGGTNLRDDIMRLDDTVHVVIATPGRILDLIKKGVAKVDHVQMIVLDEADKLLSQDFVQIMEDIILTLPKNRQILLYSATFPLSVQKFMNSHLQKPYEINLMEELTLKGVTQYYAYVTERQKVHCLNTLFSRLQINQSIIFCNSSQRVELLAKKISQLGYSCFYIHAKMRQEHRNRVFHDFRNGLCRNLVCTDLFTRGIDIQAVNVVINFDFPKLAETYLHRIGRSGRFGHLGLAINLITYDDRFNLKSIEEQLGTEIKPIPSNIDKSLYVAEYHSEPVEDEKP

[5] = molecular target: ATP-dependent RNA helicase DHX15 (Homo sapiens, UniProt O43143); assay: Inhibition of N-terminal thioredoxin-tagged human recombinant DHX15 transformed in Escherichia coli BL21(DE3)pLysS cells
Chain of ATP-dependent RNA helicase DHX15 (O43143 whole entry): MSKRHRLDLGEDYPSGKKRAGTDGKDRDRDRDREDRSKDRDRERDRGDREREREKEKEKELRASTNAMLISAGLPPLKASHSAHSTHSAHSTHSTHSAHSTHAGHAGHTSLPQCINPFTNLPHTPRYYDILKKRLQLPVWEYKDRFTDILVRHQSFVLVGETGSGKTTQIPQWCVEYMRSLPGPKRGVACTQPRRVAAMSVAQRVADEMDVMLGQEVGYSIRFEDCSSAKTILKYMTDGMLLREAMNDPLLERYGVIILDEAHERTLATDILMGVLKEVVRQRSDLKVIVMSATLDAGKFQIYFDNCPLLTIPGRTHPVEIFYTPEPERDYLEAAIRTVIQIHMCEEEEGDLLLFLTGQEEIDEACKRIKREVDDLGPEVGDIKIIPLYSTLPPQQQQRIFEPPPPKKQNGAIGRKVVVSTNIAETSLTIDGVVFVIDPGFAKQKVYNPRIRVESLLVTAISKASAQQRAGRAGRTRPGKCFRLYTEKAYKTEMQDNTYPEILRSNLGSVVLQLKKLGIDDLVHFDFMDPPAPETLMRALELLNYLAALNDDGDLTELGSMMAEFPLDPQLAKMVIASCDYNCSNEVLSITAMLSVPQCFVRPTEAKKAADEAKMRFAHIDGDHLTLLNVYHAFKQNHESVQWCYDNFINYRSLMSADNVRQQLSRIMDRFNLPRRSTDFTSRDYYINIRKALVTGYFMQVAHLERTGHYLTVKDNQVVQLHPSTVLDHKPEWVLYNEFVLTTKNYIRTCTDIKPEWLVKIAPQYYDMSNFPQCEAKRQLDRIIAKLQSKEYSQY

IC50 [1]: 0.019 µM
IC50 [2]: > 100 µM
IC50 [3]: > 100 µM
IC50 [4]: > 100 µM
IC50 [5]: 6.3 µM
Structure (SMILES): COc1ccc2nc(NC(=O)c3cc(C)n(-c4sc(C)cc4C#N)c3C)[nH]c2c1
